Test results reported in the NIST ThermoML archive (doi:10.1021/je7003963).
Numbers after ± are expanded uncertainties.

Experiment: mn = molality of the nth substance listed, in mol/kg
Settings: 293.15 K; for speed of sound / mass density: 101 kPa, Liquid; for speed of sound: Sing-around technique in a fixed-path interferometer; for mass density: Vibrating tube method

Cl.Cl.OCCN1CCN(CCCN2c3ccccc3Sc3ccc(C(F)(F)F)cc32)CC1 [fluphenazine dihydrochloride] + O
Settings	mass density [kg/m3]	speed of sound [m/s]	surface tension liquid-gas [mN/m]
m1 = 0.001	–	–	59.1 ± 2
m1 = 0.002	–	–	57.9 ± 2
m1 = 0.003	–	–	54.5 ± 1.9
m1 = 0.004	–	–	51.1 ± 1.8
m1 = 0.005	–	–	49 ± 1.7
m1 = 0.006	–	–	49.9 ± 1.7
m1 = 0.00605	999.199 ± 0.28	1484.1 ± 1.2	–
m1 = 0.007	–	–	47.7 ± 1.6
m1 = 0.00716	999.381 ± 0.29	1484.6 ± 1.2	–
m1 = 0.00794	999.509 ± 0.29	1484.8 ± 1.2	–
m1 = 0.008	–	–	45.9 ± 1.6
m1 = 0.00898	999.679 ± 0.29	1485.1 ± 1.2	–
m1 = 0.01001	999.848 ± 0.29	1485.3 ± 1.2	–
m1 = 0.01999	1001.44 ± 0.29	1487.5 ± 1.3	–
m1 = 0.025	–	–	44.3 ± 1.5
m1 = 0.02935	1002.91 ± 0.3	1489.3 ± 1.3	–
m1 = 0.04	1004.55 ± 0.31	1491.5 ± 1.3	44.6 ± 1.6
m1 = 0.0506	1006.17 ± 0.32	1492.8 ± 1.3	–
m1 = 0.05999	1007.59 ± 0.32	1494.4 ± 1.3	–
m1 = 0.075	–	–	44 ± 1.5
m1 = 0.0803	1010.64 ± 0.34	1496.9 ± 1.4	–
m1 = 0.1	1013.53 ± 0.36	1499 ± 1.4	44.5 ± 1.6
m1 = 0.1248	1017.05 ± 0.38	1501.5 ± 1.4	–
m1 = 0.125	–	–	44.1 ± 1.5
m1 = 0.149	1020.45 ± 0.4	1503.8 ± 1.5	–
m1 = 0.15	–	–	44.6 ± 1.6
m1 = 0.1752	1023.98 ± 0.43	1506.3 ± 1.5	–

CN1CCN(CCCN2c3ccccc3Sc3ccc(C(F)(F)F)cc32)CC1.Cl.Cl [trifluoperazine dihydrochloride] + O
Settings	mass density [kg/m3]	speed of sound [m/s]	surface tension liquid-gas [mN/m]
m1 = 0.003	–	–	58.1 ± 2
m1 = 0.004	–	–	55.1 ± 1.9
m1 = 0.005	–	–	51.4 ± 1.8
m1 = 0.006	–	–	51.1 ± 1.8
m1 = 0.007	–	–	49.6 ± 1.7
m1 = 0.0079	999.369 ± 0.27	1484.1 ± 1.2	–
m1 = 0.008	–	–	47.7 ± 1.6
m1 = 0.00895	999.513 ± 0.27	1484.3 ± 1.2	–
m1 = 0.009	–	–	47.7 ± 1.6
m1 = 0.01	–	–	46.5 ± 1.6
m1 = 0.011	999.803 ± 0.28	1484.7 ± 1.2	–
m1 = 0.01547	1000.45 ± 0.28	1485.5 ± 1.3	–
m1 = 0.02109	1001.24 ± 0.28	1486.4 ± 1.3	–
m1 = 0.025	–	–	46 ± 1.6
m1 = 0.0286	1002.31 ± 0.29	1487.8 ± 1.3	–
m1 = 0.03996	1003.91 ± 0.3	1489.8 ± 1.3	–
m1 = 0.0492	1005.18 ± 0.3	1491.3 ± 1.3	–
m1 = 0.05	–	–	46.5 ± 1.6
m1 = 0.06004	1006.67 ± 0.31	1493 ± 1.3	–
m1 = 0.075	–	–	45.9 ± 1.6
m1 = 0.07991	1009.39 ± 0.33	1496.2 ± 1.4	–
m1 = 0.09979	1012.03 ± 0.34	1498.3 ± 1.4	–
m1 = 0.1	–	–	46.6 ± 1.6
m1 = 0.1248	1015.25 ± 0.36	1500.6 ± 1.4	–
m1 = 0.125	–	–	46.5 ± 1.6
m1 = 0.1496	1018.45 ± 0.38	1502.9 ± 1.4	–
m1 = 0.15	–	–	45.9 ± 1.6
m1 = 0.1737	1021.45 ± 0.4	1505.1 ± 1.5	–
m1 = 0.1994	1024.63 ± 0.43	1507.3 ± 1.5	–
m1 = 0.2245	1027.65 ± 0.45	1509.5 ± 1.6	–
m1 = 0.2494	1030.56 ± 0.47	1511.7 ± 1.6	–
m1 = 0.2749	1033.52 ± 0.5	1513.6 ± 1.6	–
m1 = 0.2998	1036.3 ± 0.52	1515.8 ± 1.6	–
